Read-outs that look alike come from different tables or passages of the source.
Key:
[1] = target: T1, ACE N-domain mutant R381E (Homo sapiens, UniProt P12821, R410E); experiment: continuous fluorogenic (Abz)-FRK(Dnp)P-OH ACE inhibition assay, N-domain S2 mutant R381E; format: biochemical
T1 construct: N-domain S2 mutants Y369F, R381E and YR/FE
Protocol: (§1) Parent molecule RXP407 and compound 33RE were dissolved in sterile distilled water to yield stock solutions of 10 mM and subsequently serially diluted in assay buffer (50 mM Hepes, pH 6.8, 200 mM NaCl and 10 μM ZnSO4). Assays were performed on wild-type N-domain, C-domain and N-domain S2 mutants Y369F, R381E and YR/FE as described previously. Briefly, 40 nM enzyme was incubated with an equivolume amount of an appropriate concentration range of phosphinic inhibitor at ambient temperature for 5 min. Enzyme-inhibitor solutions were then divided into aliquotes in triplicate 20 μl volumes followed by the addition of 280 μl of fluorogenic substrate (Abz)-FRK(Dnp)P-OH (in assay buffer) to yield a final substrate concentration of 4 or 8 μM. Residual enzyme activity was monitored continuously at λex=320 nm and λem=420 nm using a fluorescence spectrophotometer (Cary Eclipse, Varian). Initial change of fluorescence over time was converted into arbitrary rate units and inhibitor-binding affinities determined using the Dixon method.
(§2) Assessment of inhibitor potential was carried out using a continuous fluorogenic assay (Abz)-FRK(Dnp)P assay.

[2] = target: T2, ACE N-domain mutant Y369F (Homo sapiens, UniProt P12821, Y398F); experiment: continuous fluorogenic (Abz)-FRK(Dnp)P-OH ACE inhibition assay, N-domain S2 mutant Y369F; format: biochemical
T2 construct: N-domain S2 mutants Y369F, R381E and YR/FE
T2 sequence (P12821 40-624 Y398F): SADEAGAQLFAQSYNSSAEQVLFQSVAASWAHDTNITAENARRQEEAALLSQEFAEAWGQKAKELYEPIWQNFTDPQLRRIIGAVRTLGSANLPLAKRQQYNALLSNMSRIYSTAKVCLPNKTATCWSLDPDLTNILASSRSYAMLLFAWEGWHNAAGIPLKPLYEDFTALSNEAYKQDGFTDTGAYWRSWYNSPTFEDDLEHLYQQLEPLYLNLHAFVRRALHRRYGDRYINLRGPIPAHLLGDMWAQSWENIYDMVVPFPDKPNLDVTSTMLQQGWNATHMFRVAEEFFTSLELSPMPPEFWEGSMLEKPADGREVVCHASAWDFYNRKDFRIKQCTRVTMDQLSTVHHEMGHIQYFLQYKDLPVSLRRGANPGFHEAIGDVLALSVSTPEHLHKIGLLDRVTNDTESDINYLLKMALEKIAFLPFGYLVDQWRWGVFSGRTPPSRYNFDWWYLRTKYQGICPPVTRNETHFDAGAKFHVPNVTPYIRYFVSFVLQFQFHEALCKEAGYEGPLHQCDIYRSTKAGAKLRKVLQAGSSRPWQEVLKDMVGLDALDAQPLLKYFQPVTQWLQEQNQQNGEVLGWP
Protocol: as §1, §2

[3] = target: T3, ACE N-domain double mutant YR/FE (Homo sapiens, UniProt P12821, R410E/Y398F); experiment: continuous fluorogenic (Abz)-FRK(Dnp)P-OH ACE inhibition assay, N-domain S2 double mutant YR/FE; format: biochemical
T3 construct: N-domain S2 mutants Y369F, R381E and YR/FE
T3 sequence (P12821 40-624 Y398F/R410E): as the sequence (P12821 40-624 Y398F) above, with R371E counted along it
Protocol: as §1, §2

[4] = target: T4, ACE N-domain (wild-type) (Homo sapiens, UniProt P12821); experiment: continuous fluorogenic (Abz)-FRK(Dnp)P-OH ACE inhibition assay, wild-type N-domain; format: biochemical; details: for Fold selectivity Ki (C/N): C-domain Ki / wild-type N-domain Ki
T4 construct: Assays were performed on wild-type N-domain, C-domain and N-domain S2 mutants; made in house; host or cells: CHO (Chinese-hamster ovary) cells
T4 sequence (P12821 40-624 limits assumed): as the sequence (P12821 40-624 Y398F) above, with F359Y counted along it
Protocol: as §1, §2

[5] = target: T4, ACE N-domain (wild-type); parameters: method as in PMID 10200262; details: N-domain over C-domain; cited from earlier work

T1 sequence (P12821 40-624 R410E): as the sequence (P12821 40-624 Y398F) above, with F359Y, R371E counted along it

SMILES | Fold selectivity Ki (C/N) ([1]; C-domain Ki / R381E mutant Ki) [fold] | Ki ([1]; N-domain mutant R381E, means±S.E.M.) [µM] | decrease in binding affinity compared with wild-type ([1]; R381E vs wild-type N-domain) [fold] | Fold selectivity Ki (C/N) ([2]; C-domain Ki / Y369F mutant Ki) [fold] | Ki ([2]; N-domain mutant Y369F, means±S.E.M.) [µM] | decrease in binding affinity compared with wild-type ([2]; Y369F vs wild-type N-domain) [fold] | Fold selectivity Ki (C/N) ([3]; C-domain Ki / YR/FE mutant Ki) [fold] | Ki ([3]; N-domain double mutant YR/FE, means±S.E.M.) [µM] | decrease in binding affinity compared with wild-type ([3]; YR/FE vs wild-type N-domain) [fold] | Ki [4] [µM] | Fold selectivity Ki (C/N) [4] [fold] | N-selectivity [5] | Ki ([4]; wild-type N-domain, Dixon method, means±S.E.M., read-out: Ki) [µM]
C[C@H](CP(=O)(O)[C@H](Cc1ccccc1)NC(=O)[C@@H](N)Cc1nnn[nH]1)C(=O)N[C@H](C)C(N)=O [33RE] | 120 | 0.087 ± 0.00629 | 8 | 26 | 0.404 ± 0.0173 | 36 | 4 | 2.79 ± 0.156 | 250 | 0.0112 ± 0.00074 | 927 | – | –
CC(=O)NC(CC(=O)O)C(=O)NC(Cc1ccccc1)P(=O)(O)CC(C)C(=O)NC(C)C(N)=O (centres unmarked) [RXP407, reference compound] | – | – | – | – | – | – | – | – | – | – | 2896 | approximately three orders of magnitude | 0.021 ± 0.00027
